Assay results reported in patent publication US20070203158A1, “Fungicidal Mixtures” (BASF AKTIENGESELLSCHAFT, priority 2004, published 2007).

Tested on: Plasmopara viticola
Experiment: Activity against peronospora of grapevines caused by Plasmopara viticola (protective spray on potted vines)
Format: in vivo
Details: individual active compound, untreated control 89% infection
Protocol: The active compounds, separately or jointly, were prepared as a stock solution comprising 0.25% by weight of active compound in acetone or DMSO. 1% by weight of the emulsifier Uniperol® EL (wetting agent having emulsifying and dispersant action based on ethoxylated alkylphenols) was added to this solution, and the mixture was diluted with water to the desired concentration.
Leaves of potted vines were sprayed to runoff point with an aqueous suspension having the concentration of active compound stated below. The next day, the undersides of the leaves were inoculated with an aqueous sporangia suspension of Plasmopara viticola. The grapevines were then initially placed in a water-vapor-saturated chamber at 24° C. for 48 hours and then in a greenhouse at 20-30° C. for 5 days. After this period of time, the plants were again placed in a humid chamber for 16 hours to promote sporangiophore eruption. The extent of the development of the disease on the undersides of the leaves was then determined visually.
The visually determined percentages of infected leaf areas were converted into efficacies in % of the untreated control:
The efficacy (E) is calculated as follows using Abbot's formula: E=(1−α/β)·100 • α corresponds to the fungicidal infection of the treated plants in % and • β corresponds to the fungicidal infection of the untreated (control) plants in %
An efficacy of 0 means that the infection level of the treated plants corresponds to that of the untreated control plants; an efficacy of 100 means that the treated plants are not infected.
The expected efficacies of mixtures of active compounds were determined using Colby's formula (Colby, S. R. “Calculating synergistic and antagonistic responses of herbicide combinations”, Weeds, 15, 20-22, 1967) and compared with the observed efficacies.
Colby's formula: E=x+y−x·y/100 • E expected efficacy, expressed in % of the untreated control, when using the mixture of the active compounds A and B at the concentrations a and b • x efficacy, expressed in % of the untreated control, when using the active compound A at the concentration a
y efficacy, expressed in % of the untreated control, when using the active compound B at the concentration b

| Structure (SMILES) | Efficacy in % of the untreated control (1 ppm in the spray liquor) [%] | Efficacy in % of the untreated control (4 ppm in the spray liquor) [%] |
| --- | --- | --- |
| CC1CCN(c2c(-c3c(F)cc(F)cc3F)c(Cl)nc3ncnn23)CC1 [compound I, 5-chloro-7-(4-methylpiperidin-1-yl)-6-(2,4,6-trifluorophenyl)-[1,2,4]tri-azolo[1,5-a]pyrimidine] | 0 | 33 |
| CO/C=C(/C(=O)OC)c1ccccc1COc1cccc(C(F)(F)F)n1 [compound II, methyl 3-methoxy-2-[2-(6-trifluoromethylpyridin-2-yloxymethyl)phenyl]acrylate] | 33 | 66 |
